Legend:
Liver microsome [1] = assay: Intrinsic clearance in Wistar rat liver microsomes measured per gram of tissue at 2.5 uM; assay type: ADME
Liver microsome [2] = assay: Intrinsic clearance in human liver microsomes measured per gram of tissue at 2.5 uM; assay type: ADME
[3] = target: Metabotropic glutamate receptor 5 (Rattus norvegicus) (UniProt P31424); assay: Displacement of [3H]-M-MPEP from rat cerebrocortical mGluR5 receptor at 1 uM
[4] = target: Metabotropic glutamate receptor 5 (Rattus norvegicus, UniProt P31424); assay: Negative allosteric modulation of mGlu5 receptor in primary E17 rat embryo neuron assessed as ca2+ level by fluo-4/AM assay
Metabotropic glutamate receptor 5, sequence (P31424 whole entry): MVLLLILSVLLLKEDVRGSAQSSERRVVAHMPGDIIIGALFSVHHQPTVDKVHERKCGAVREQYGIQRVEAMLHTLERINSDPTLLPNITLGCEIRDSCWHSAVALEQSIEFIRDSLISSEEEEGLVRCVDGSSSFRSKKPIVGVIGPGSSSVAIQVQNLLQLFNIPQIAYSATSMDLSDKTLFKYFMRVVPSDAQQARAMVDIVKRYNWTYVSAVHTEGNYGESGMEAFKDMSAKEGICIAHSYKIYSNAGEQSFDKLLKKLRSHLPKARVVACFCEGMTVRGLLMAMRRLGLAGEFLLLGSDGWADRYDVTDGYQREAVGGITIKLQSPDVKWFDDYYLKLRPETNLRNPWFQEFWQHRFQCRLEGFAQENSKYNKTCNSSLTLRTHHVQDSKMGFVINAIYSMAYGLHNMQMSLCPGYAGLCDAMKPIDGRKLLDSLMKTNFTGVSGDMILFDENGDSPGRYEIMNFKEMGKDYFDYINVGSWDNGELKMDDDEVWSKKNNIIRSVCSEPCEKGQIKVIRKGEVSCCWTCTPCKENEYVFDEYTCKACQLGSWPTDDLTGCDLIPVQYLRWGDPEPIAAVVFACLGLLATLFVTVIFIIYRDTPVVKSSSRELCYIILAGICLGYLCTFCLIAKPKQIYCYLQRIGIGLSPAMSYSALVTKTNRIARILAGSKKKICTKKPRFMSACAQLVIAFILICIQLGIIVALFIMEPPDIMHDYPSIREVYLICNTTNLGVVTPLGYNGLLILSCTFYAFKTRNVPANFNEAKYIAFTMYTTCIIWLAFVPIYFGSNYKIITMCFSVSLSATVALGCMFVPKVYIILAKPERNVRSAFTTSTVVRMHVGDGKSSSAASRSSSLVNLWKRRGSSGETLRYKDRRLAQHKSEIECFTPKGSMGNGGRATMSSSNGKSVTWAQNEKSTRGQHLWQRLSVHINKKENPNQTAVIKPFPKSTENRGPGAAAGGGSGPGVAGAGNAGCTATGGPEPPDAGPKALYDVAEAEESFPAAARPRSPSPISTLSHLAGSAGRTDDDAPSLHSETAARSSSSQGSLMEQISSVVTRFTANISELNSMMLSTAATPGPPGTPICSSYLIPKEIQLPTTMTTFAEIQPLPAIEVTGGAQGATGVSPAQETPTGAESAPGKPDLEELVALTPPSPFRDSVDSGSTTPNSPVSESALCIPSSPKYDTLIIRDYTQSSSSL

Rattus norvegicus [5] = assay: Anxiolytic effect in po dosed Wistar male rat assessed as increase in number of accepted shocks by vogel punished drinking test; assay type: functional; details: read-out: MED
Rattus norvegicus [6] = assay: Anxiolytic effect in ip dosed Wistar male rat assessed as increase in number of accepted shocks by vogel punished drinking test; assay type: functional

Metabotropic glutamate receptor 5 (Rattus norvegicus), sequence (P31424 21-1203 limits assumed): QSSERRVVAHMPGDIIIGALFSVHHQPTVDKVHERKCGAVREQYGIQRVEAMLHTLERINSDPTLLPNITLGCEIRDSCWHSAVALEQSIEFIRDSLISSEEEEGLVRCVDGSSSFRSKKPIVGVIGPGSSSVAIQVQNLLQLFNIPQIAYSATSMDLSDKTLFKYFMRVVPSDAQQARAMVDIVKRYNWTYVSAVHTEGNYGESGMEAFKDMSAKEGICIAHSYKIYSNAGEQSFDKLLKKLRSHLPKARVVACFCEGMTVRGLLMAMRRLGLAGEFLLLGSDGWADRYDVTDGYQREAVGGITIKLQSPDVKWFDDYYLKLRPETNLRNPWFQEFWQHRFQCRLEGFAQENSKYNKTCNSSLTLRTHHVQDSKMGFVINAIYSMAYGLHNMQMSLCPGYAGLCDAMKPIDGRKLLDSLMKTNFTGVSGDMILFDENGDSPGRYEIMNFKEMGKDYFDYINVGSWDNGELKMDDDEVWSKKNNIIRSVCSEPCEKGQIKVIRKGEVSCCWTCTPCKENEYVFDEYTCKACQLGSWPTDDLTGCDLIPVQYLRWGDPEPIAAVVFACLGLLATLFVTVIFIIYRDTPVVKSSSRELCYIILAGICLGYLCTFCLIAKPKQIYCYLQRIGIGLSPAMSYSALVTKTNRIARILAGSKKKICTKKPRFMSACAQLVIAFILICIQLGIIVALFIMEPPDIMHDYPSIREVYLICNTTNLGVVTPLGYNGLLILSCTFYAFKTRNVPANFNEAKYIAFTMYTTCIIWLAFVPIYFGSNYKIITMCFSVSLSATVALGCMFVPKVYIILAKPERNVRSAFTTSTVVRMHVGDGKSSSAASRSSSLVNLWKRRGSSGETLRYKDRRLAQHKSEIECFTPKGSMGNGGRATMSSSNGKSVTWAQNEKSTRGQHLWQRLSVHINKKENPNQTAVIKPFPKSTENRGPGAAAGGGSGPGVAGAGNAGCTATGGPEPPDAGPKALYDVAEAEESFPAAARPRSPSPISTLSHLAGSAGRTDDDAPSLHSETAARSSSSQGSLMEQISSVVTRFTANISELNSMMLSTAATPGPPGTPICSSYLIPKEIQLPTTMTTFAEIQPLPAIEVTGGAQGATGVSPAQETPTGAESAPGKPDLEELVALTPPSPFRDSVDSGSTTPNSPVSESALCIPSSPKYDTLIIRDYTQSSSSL

Structure (SMILES) | CLH (Liver microsome [1]) [mL/min/g] | CLH (Liver microsome [2]) [mL/min/g] | inhibition [3] [%] | IC50 [4] [nM] | minimal effective dose (Rattus norvegicus [5]) [mg/kg] | Activity (Rattus norvegicus [6]) | minimal effective dose (Rattus norvegicus [6]; read-out: MED) [mg/kg]
CN(C)c1ccc2c(-c3ccc(Cl)cc3)c(S(=O)(=O)c3ccc(Cl)cc3)sc2n1 | 3.7 | 1.4 | 2 |  |  |  | 
O=S(=O)(c1ccc(Cl)cc1)c1sc2ncccc2c1-c1ccc(Cl)cc1 | 4.2 | 1.6 |  |  |  | Dose-dependent effect | 40
N#Cc1ccc(-c2c(S(=O)(=O)c3cccc(C#N)c3)sc3ncccc23)cc1 | 2.9 | 0.1 | 62 |  |  |  | 

Second part, led by results:

CLH (Liver microsome [1]) [mL/min/g] | CLH (Liver microsome [2]) [mL/min/g] | inhibition [3] [%] | IC50 [4] [nM] | Structure (SMILES) | minimal effective dose (Rattus norvegicus [5]) [mg/kg] | Activity (Rattus norvegicus [6]) | minimal effective dose (Rattus norvegicus [6]; read-out: MED) [mg/kg]
0.7 | 0.01 | 34 |  | O=S(=O)(c1ccc(Cl)cc1)c1sc2nccc(O)c2c1-c1ccc(Cl)cc1 |  |  | 
1.2 | 0.9 |  | 5.5 | N#Cc1cc(F)cc(S(=O)(=O)c2sc3ncc(N)cc3c2-c2cccc(F)c2)c1 | 3 |  | 
2.4 | 0.4 | 13 |  | CS(=O)(=O)c1ccc(-c2c(S(=O)(=O)c3ccc(Cl)cc3)sc3ncccc23)cc1 |  |  | 
